Experimental data published in US20220227763A1, “MICROBIOCIDAL DERIVATIVES” (SYNGENTA CROP PROTECTION AG, priority 2019, published 2022).

Tests used:
[1] = system: Mycosphaerella graminicola (Septoria tritici); experiment: Mycosphaerella graminicola (Septoria tritici) / liquid culture (Septoria blotch); type: cell-based; details: Zymoseptoria tritici, growth inhibition determined photometrically 4-5 days after application, compared to untreated control
Description: Example B5: Mycosphaerella graminicola (Septoria tritici)/Liquid Culture (Septoria blotch) Conidia of the fungus from cryogenic storage are directly mixed into nutrient broth (PDB potato dextrose broth). After placing a (DMSO) solution of test compound into a microtiter plate (96-well format), the nutrient broth containing the fungal spores is added. The test plates are incubated at 24° C. and the inhibition of growth is determined photometrically 4-5 days after application. […] […]-19.

For `CC1(C)CCC1NC(=O)c1nc(Nc2cc(F)cc(F)c2)cc2cc[nH]c12` (stereo not shown) [Compound P-1, 5-(3,5-difluoroanilino)-N-(2,2-dimethylcyclobutyl)-1H-pyrrolo[2,3-c]pyridine-7-carboxamide], the inhibition of growth at 20 ppm [1] was ≥ 80% and the melting point was 65 to 89 °C.

For `CC1(C)CCC1NC(=O)c1nc(Nc2cc(F)nc(F)c2)cc2cc[nH]c12` (stereo not shown) [Compound P-2, 5-[(2,6-difluoro-4-pyridyl)amino]-N-(2,2-dimethylcyclobutyl)-1H-pyrrolo[2,3-c]pyridine-7-carboxamide], the inhibition of growth at 20 ppm [1] was ≥ 80% and the melting point was 115 to 148 °C.

`Cn1cc(Nc2cc3cn[nH]c3c(C(=O)NC3CCC3(C)C)n2)cn1` (stereo not shown) [Compound P-4, N-(2,2-dimethylcyclobutyl)-5-[(1-methylpyrazol-4-yl)amino]-1H-pyrazolo[3,4-c]pyridine-7-carboxamide] gave a melting point of 158 to 166 °C.

For `CC1(C)CCC1NC(=O)c1nc(Nc2cnsc2)cc2cn[nH]c12` (stereo not shown) [Compound P-5, N-(2,2-dimethylcyclobutyl)-5-(isothiazol-4-ylamino)-1H-pyrazolo[3,4-c]pyridine-7-carboxamide], the inhibition of growth at 20 ppm [1] was ≥ 80% and the melting point was 158 to 166 °C.

With `CC1(C)CCC1NC(=O)c1nc(Nc2cc(F)cc(F)c2)cc2cn[nH]c12` (stereo not shown) [Compound P-6, 5-(3,5-difluoroanilino)-N-(2,2-dimethylcyclobutyl)-1H-pyrazolo[3,4-c]pyridine-7-carboxamide] the inhibition of growth at 20 ppm [1] was ≥ 80% and the melting point was 167 to 176 °C.

For `CC1(C)CCC1NC(=O)c1nc(Nc2ccnc(F)c2)cc2cn[nH]c12` (stereo not shown) [Compound P-7, N-(2,2-dimethylcyclobutyl)-5-[(2-fluoro-4-pyridyl)amino]-1H-pyrazolo[3,4-c]pyridine-7-carboxamide], the inhibition of growth at 20 ppm [1] was ≥ 80% and the melting point was 222 to 238 °C.

For `CC1(C)CCC1NC(=O)c1nc(Nc2cc(F)nc(F)c2)cc2cn[nH]c12` (stereo not shown) [Compound P-8, 5-[(2,6-difluoro-4-pyridyl)amino]-N-(2,2-dimethylcyclobutyl)-1H-pyrazolo[3,4-c]pyridine-7-carboxamide], the inhibition of growth at 20 ppm [1] was ≥ 80% and the melting point was 240 to 250 °C.

Work on `CCCCCNC(=O)c1nc(Nc2cncc(F)c2)cc2cc[nH]c12` [Compound P-10, 5-[(5-fluoro-3-pyridyl)amino]-N-pentyl-1H-pyrrolo[2,3-c]pyridine-7-carboxamide] yielded a melting point of 158 to 162 °C.

Molecule `CCCCCNC(=O)c1nc(Nc2cc(F)nc(F)c2)cc2cc[nH]c12` [Compound P-11, 5-[(2,6-difluoro-4-pyridyl)amino]-N-pentyl-1H-pyrrolo[2,3-c]pyridine-7-carboxamide] has a melting point of 220 to 233 °C.

In the case of `CCCCCNC(=O)c1nc(Nc2cncc(F)c2)cc2cn[nH]c12` [Compound P-13, 5-[(5-fluoro-3-pyridyl)amino]-N-pentyl-1H-pyrazolo[3,4-c]pyridine-7-carboxamide], the melting point is reported as 155 to 168 °C.

In the case of `O=C(NC1CCC12CCCC2)c1nc(Nc2cncc(F)c2)cc2cn[nH]c12` (stereo not shown) [Compound P-15, 5-[(5-fluoro-3-pyridyl)amino]-N-spiro[3.4]octan-3-yl-1H-pyrazolo[3,4-c]pyridine-7-carboxamide], the melting point is reported as 185 to 195 °C.

Work on `O=C(NC1CCC12CCCC2)c1nc(Nc2cncc(F)c2)cc2cc[nH]c12` (stereo not shown) [Compound P-17, 5-[(5-fluoro-3-pyridyl)amino]-N-spiro[3.4]octan-3-yl-1H-pyrrolo[2,3-c]pyridine-7-carboxamide] yielded a melting point of 180 to 191 °C.

In the case of `O=C(NC1CCC12CCCC2)c1nc(Nc2cc(F)nc(F)c2)cc2cc[nH]c12` (stereo not shown) [Compound P-18, 5-[(2,6-difluoro-4-pyridyl)amino]-N-spiro[3.4]octan-3-yl-1H-pyrrolo[2,3-c]pyridine-7-carboxamide], the inhibition of growth at 20 ppm [1] is reported as ≥ 80% and the melting point is reported as 170 to 178 °C.

In the case of `O=C(NC1CCC12CCCC2)c1nc(Nc2cc(F)nc(F)c2)cc2cn[nH]c12` (stereo not shown) [Compound P-19, 5-[(2,6-difluoro-4-pyridyl)amino]-N-spiro[3.4]octan-3-yl-1H-pyrazolo[3,4-c]pyridine-7-carboxamide], the inhibition of growth at 20 ppm [1] is reported as ≥ 80% and the melting point is reported as 168 to 180 °C.
